What was measured:
[1] = intravenous administration of 7.5-10 mg three times daily; cited from earlier work
[2] = Flux of acyclovir gels with different drug concentrations (saturation flux comparison); assay type: in vitro ADME; conditions: in the vehicle of Table 10a

Nc1nc2c(ncn2COCCO)c(=O)[nH]1 [acyclovir]
Serum concentrations of acyclovir [1]: 5 to 10 µg/mL
Acyclovir concentration giving a saturated formulation post-evaporation [2]: 0.06 % (w/w)

Source: patent US8431140B2, “Topical compositions” (priority 2006, dated 2013)
